Patent US9833497B2, “Human originated EGF domain proteins and use of the same” (CHENGDU SOURCEBIO LIMITED-LIABILITY COMPANY, priority 2013, dated 2017)

Columns and labels:
Format in all cases: cell-based
Klebsiella pneumonia = assay: MIC against Gram-negative bacteria: Klebsiella pneumonia; conditions: for MIC / MIC (μg/mL) K. pneumonia: K. pneumonia
In short: (§1)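 Bacteria grown in LB at 37° C to McFarland 0.5, resuspended and seeded at 5×10^5 CFU/mL in 96-well plates. Purified human EGF-domain proteins two-fold serially diluted, triplicate wells; cultured at 37° C, shaking 175 rpm. MIC = lowest protein concentration with no growth.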

E. coli DH5α = assay: Antibacterial activity: MIC and growth curve against E. coli DH5α in 96-well plate; conditions: minimal inhibitory concentration against E. coli DH5α; 96-well plate, 5×10^5 CFU/mL, 37° C., judged after 8 h
In short: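 MIC taken as lowest protein level with no bacterial growth, tracked by A600 every 30 min during 37 °C, 175 rpm culture. Two-fold protein series 50-12.5 μg/mL final, triplicate wells, against 5×10^5 CFU/mL of LB-washed mid-log cells.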

Moraxella catarrhalis = assay: MIC against Gram-negative bacteria: Moraxella catarrhalis; conditions: for MIC / MIC (μg/mL) M. catarrhalis: M. catarrhalis
In short: as §1

E. coli BL21 = assay: MIC against Gram-negative bacteria: E. coli BL21
In short: as §1

Pseudomonas aeruginosa = assay: MIC against Gram-negative bacteria: Pseudomonas aeruginosa; conditions: for MIC / MIC (μg/mL) P. aeruginosa: P. aeruginosa
In short: as §1

Enterobacter cloacae = assay: MIC against Gram-negative bacteria: Enterobacter cloacae; conditions: for MIC / MIC (μg/mL) E. cloacae: E. cloacae
In short: as §1

Proteus vulgaris = assay: MIC against Gram-negative bacteria: Proteus vulgaris; conditions: for MIC / MIC (μg/mL) P. vulgaris: P. vulgaris
In short: as §1

Proteus mirabilis = assay: MIC against Gram-negative bacteria: Proteus mirabilis; conditions: for MIC / MIC (μg/mL) P. mirabilis: P. mirabilis
In short: as §1

Aeromonas hydrophila = assay: MIC against Gram-negative bacteria: Aeromonas hydrophila; conditions: for MIC / MIC (μg/mL) A. hydrophila: A. hydrophila
In short: as §1

Citrobacter diversus = assay: MIC against Gram-negative bacteria: Citrobacter diversus; conditions: for MIC / MIC (μg/mL) C. diversus: C. diversus
In short: as §1

Serratia marcescens = assay: MIC against Gram-negative bacteria: Serratia marcescens; conditions: for MIC / MIC (μg/mL) S. marcescens: S. marcescens
In short: as §1

[1] = 10 h cultivation at 37° C., 5×10^5 CFU/mL
[2] = E. coli BL21, 10 h cultivation at 37° C., 5×10^5 CFU/mL
[3] = E. coli BL21, 10 h cultivation at 37° C.
[4] = 96-well plate, 5×10^5 CFU/mL, 37° C., 10 h

PRT1228 (CPPCPKYASCHNSTHCTCEDGFRARSGRTYFHDSSEKCE; listed as Homo sapiens)
MIC against K. pneumonia (Klebsiella pneumonia; Klebsiella pneumonia, 96-well plate, 5×10^5 CFU/mL, 37° C., 10 h): 25 µg/mL
MIC (E. coli DH5α): 12.5 µg/mL
MIC against M. catarrhalis (Moraxella catarrhalis; Moraxella catarrhalis, 96-well plate, 5×10^5 CFU/mL, 37° C., 10 h): 25 µg/mL
MIC against E. coli BL21 (E. coli BL21; E. coli BL21, 96-well plate, 5×10^5 CFU/mL, 37° C., 10 h): 25 µg/mL
MIC against P. aeruginosa (Pseudomonas aeruginosa; Pseudomonas aeruginosa, 96-well plate, 5×10^5 CFU/mL, 37° C., 10 h): 50 µg/mL
MIC against E. cloacae (Enterobacter cloacae; Enterobacter cloacae, 96-well plate, 5×10^5 CFU/mL, 37° C., 10 h): 12.5 µg/mL
MIC against P. vulgaris (Proteus vulgaris; Proteus vulgaris, 96-well plate, 5×10^5 CFU/mL, 37° C., 10 h): 25 µg/mL
MIC against P. mirabilis (Proteus mirabilis; Proteus mirabilis, 96-well plate, 5×10^5 CFU/mL, 37° C., 10 h): 12.5 µg/mL
MIC against A. hydrophila (Aeromonas hydrophila; Aeromonas hydrophila, 96-well plate, 5×10^5 CFU/mL, 37° C., 10 h): 25 µg/mL
MIC against C. diversus (Citrobacter diversus; Citrobacter diversus, 96-well plate, 5×10^5 CFU/mL, 37° C., 10 h): 50 µg/mL
MIC against S. marcescens (Serratia marcescens; Serratia marcescens, 96-well plate, 5×10^5 CFU/mL, 37° C., 10 h): 50 µg/mL

PRT419 (DIDECALPTGGHICSYRCINIPGSFQCSCPSSGYRLAPNGRNCQ; listed as Homo sapiens)
MIC (Klebsiella pneumonia; [1]): 50 µg/mL
MIC (E. coli DH5α): 25 µg/mL
MIC (Moraxella catarrhalis; [1]): 50 µg/mL
MIC (E. coli BL21; [2]): 12.5 µg/mL
MIC (Pseudomonas aeruginosa; [1]): 25 µg/mL
MIC (Enterobacter cloacae; [1]): 25 µg/mL
MIC (Proteus vulgaris; [1]): 12.5 µg/mL
MIC (Proteus mirabilis; [1]): 25 µg/mL
MIC (Aeromonas hydrophila; [1]): 12.5 µg/mL
MIC (Citrobacter diversus; [1]): 25 µg/mL
MIC (Serratia marcescens; [1]): 25 µg/mL

PRT767 (AIDLCAEGTHGCEHHCVNSPGSYFCHCQVGFVLQQDQ; listed as Homo sapiens)
MIC (μg/mL) K. pneumonia (Klebsiella pneumonia; [1]): 12.5 µg/mL
MIC (E. coli DH5α): 25 µg/mL
MIC (μg/mL) M. catarrhalis (Moraxella catarrhalis; [1]): 50 µg/mL
MIC (μg/mL) E. coli BL21 (E. coli BL21; [2]): 50 µg/mL
MIC (μg/mL) P. aeruginosa (Pseudomonas aeruginosa; [1]): 25 µg/mL
MIC (μg/mL) E. cloacae (Enterobacter cloacae; [1]): 50 µg/mL
MIC (μg/mL) P. vulgaris (Proteus vulgaris; [1]): 12.5 µg/mL
MIC (μg/mL) P. mirabilis (Proteus mirabilis; [1]): 25 µg/mL
MIC (μg/mL) A. hydrophila (Aeromonas hydrophila; [1]): 12.5 µg/mL
MIC (μg/mL) C. diversus (Citrobacter diversus; [1]): 25 µg/mL
MIC (μg/mL) S. marcescens (Serratia marcescens; [1]): 50 µg/mL

PRT183 (ECIPHNGCRHGTCSTPWQCTCDEGWGGLFCD; listed as Homo sapiens)
MIC (μg/mL) K. pneumonia (Klebsiella pneumonia; [1]): 25 µg/mL
MIC (E. coli DH5α): 12.5 µg/mL
MIC (μg/mL) M. catarrhalis (Moraxella catarrhalis; [1]): 25 µg/mL
MIC (μg/mL) E. coli BL21 (E. coli BL21; [2]): 12.5 µg/mL
MIC (μg/mL) P. aeruginosa (Pseudomonas aeruginosa; [1]): 12.5 µg/mL
MIC (μg/mL) E. cloacae (Enterobacter cloacae; [1]): 12.5 µg/mL
MIC (μg/mL) P. vulgaris (Proteus vulgaris; [1]): 25 µg/mL
MIC (μg/mL) P. mirabilis (Proteus mirabilis; [1]): 12.5 µg/mL
MIC (μg/mL) A. hydrophila (Aeromonas hydrophila; [1]): 25 µg/mL
MIC (μg/mL) C. diversus (Citrobacter diversus; [1]): 12.5 µg/mL
MIC (μg/mL) S. marcescens (Serratia marcescens; [1]): 12.5 µg/mL

PRT1359 (SREICPVPCSEEHGTCVDGLCVCHDGFAGDDCN; listed as Homo sapiens)
MIC against K. pneumonia (Klebsiella pneumonia; Klebsiella pneumonia, 5×10^5 CFU/mL, 10 h cultivation at 37° C.): 12.5 µg/mL
MIC (E. coli DH5α): 25 µg/mL
MIC against M. catarrhalis (Moraxella catarrhalis; Moraxella catarrhalis, 5×10^5 CFU/mL, 10 h cultivation at 37° C.): 12.5 µg/mL
MIC against E. coli BL21 (E. coli BL21; E. coli BL21, 5×10^5 CFU/mL, 10 h cultivation at 37° C.): 12.5 µg/mL
MIC against P. aeruginosa (Pseudomonas aeruginosa; Pseudomonas aeruginosa, 5×10^5 CFU/mL, 10 h cultivation at 37° C.): 25 µg/mL
MIC against E. cloacae (Enterobacter cloacae; Enterobacter cloacae, 5×10^5 CFU/mL, 10 h cultivation at 37° C.): 25 µg/mL
MIC against P. vulgaris (Proteus vulgaris; Proteus vulgaris, 5×10^5 CFU/mL, 10 h cultivation at 37° C.): 12.5 µg/mL
MIC against P. mirabilis (Proteus mirabilis; Proteus mirabilis, 5×10^5 CFU/mL, 10 h cultivation at 37° C.): 25 µg/mL
MIC against A. hydrophila (Aeromonas hydrophila; Aeromonas hydrophila, 5×10^5 CFU/mL, 10 h cultivation at 37° C.): 12.5 µg/mL
MIC against C. diversus (Citrobacter diversus; Citrobacter diversus, 5×10^5 CFU/mL, 10 h cultivation at 37° C.): 25 µg/mL
MIC against S. marcescens (Serratia marcescens; Serratia marcescens, 5×10^5 CFU/mL, 10 h cultivation at 37° C.): 25 µg/mL

PRT956 (NIDDCAFASCTPGSTCIDRVASFSCMCPEGKAGLLCH; listed as Homo sapiens)
MIC (Klebsiella pneumonia; 10 h cultivation at 37° C.): 25 µg/mL
MIC (E. coli DH5α): 12.5 µg/mL
MIC (Moraxella catarrhalis; 10 h cultivation at 37° C.): 12.5 µg/mL
MIC (E. coli BL21; [3]): 12.5 µg/mL
MIC (Pseudomonas aeruginosa; 10 h cultivation at 37° C.): 12.5 µg/mL
MIC (Enterobacter cloacae; 10 h cultivation at 37° C.): 12.5 µg/mL
MIC (Proteus vulgaris; 10 h cultivation at 37° C.): 50 µg/mL
MIC (Proteus mirabilis; 10 h cultivation at 37° C.): 25 µg/mL
MIC (Aeromonas hydrophila; 10 h cultivation at 37° C.): 25 µg/mL
MIC (Citrobacter diversus; 10 h cultivation at 37° C.): 25 µg/mL
MIC (Serratia marcescens; 10 h cultivation at 37° C.): 25 µg/mL

PRT979 (LPDPCLSSPCAHGARCSVGPDGRFLCSCPPGYQGRSCR; listed as Homo sapiens)
MIC (Klebsiella pneumonia; 10 h cultivation at 37° C.): 12.5 µg/mL
MIC (E. coli DH5α): 50 µg/mL
MIC (Moraxella catarrhalis; 10 h cultivation at 37° C.): 25 µg/mL
MIC (E. coli BL21; [3]): 12.5 µg/mL
MIC (Pseudomonas aeruginosa; 10 h cultivation at 37° C.): 50 µg/mL
MIC (Enterobacter cloacae; 10 h cultivation at 37° C.): 50 µg/mL
MIC (Proteus vulgaris; 10 h cultivation at 37° C.): 25 µg/mL
MIC (Proteus mirabilis; 10 h cultivation at 37° C.): 12.5 µg/mL
MIC (Aeromonas hydrophila; 10 h cultivation at 37° C.): 12.5 µg/mL
MIC (Citrobacter diversus; 10 h cultivation at 37° C.): 100 µg/mL
MIC (Serratia marcescens; 10 h cultivation at 37° C.): 12.5 µg/mL

PRT501 (CGCNPVGSASDEPCTGPCVCKENVEGKACDRCKPGFYNLKEKNPRGCSE; listed as Homo sapiens)
MIC against K. pneumonia (Klebsiella pneumonia; [4]): 25 µg/mL
MIC (E. coli DH5α): 12.5 µg/mL
MIC against M. catarrhalis (Moraxella catarrhalis; [4]): 25 µg/mL
MIC against E. coli BL21 (E. coli BL21; [4]): 25 µg/mL
MIC against P. aeruginosa (Pseudomonas aeruginosa; [4]): 50 µg/mL
MIC against E. cloacae (Enterobacter cloacae; [4]): 12.5 µg/mL
MIC against P. vulgaris (Proteus vulgaris; [4]): 25 µg/mL
MIC against P. mirabilis (Proteus mirabilis; [4]): 12.5 µg/mL
MIC against A. hydrophila (Aeromonas hydrophila; [4]): 25 µg/mL
MIC against C. diversus (Citrobacter diversus; [4]): 12.5 µg/mL
MIC against S. marcescens (Serratia marcescens; [4]): 12.5 µg/mL

PRT765 (VRDKCALGSHGCQHICVSDGAASYHCDCYPGYTLNEDKKTCS; listed as Homo sapiens)
MIC (μg/mL) K. pneumonia (Klebsiella pneumonia; [1]): 50 µg/mL
MIC (E. coli DH5α): 12.5 µg/mL
MIC (μg/mL) M. catarrhalis (Moraxella catarrhalis; [1]): 12.5 µg/mL
MIC (μg/mL) E. coli BL21 (E. coli BL21; [2]): 50 µg/mL
MIC (μg/mL) P. aeruginosa (Pseudomonas aeruginosa; [1]): 12.5 µg/mL
MIC (μg/mL) E. cloacae (Enterobacter cloacae; [1]): 12.5 µg/mL
MIC (μg/mL) P. vulgaris (Proteus vulgaris; [1]): 12.5 µg/mL
MIC (μg/mL) P. mirabilis (Proteus mirabilis; [1]): 12.5 µg/mL
MIC (μg/mL) A. hydrophila (Aeromonas hydrophila; [1]): 12.5 µg/mL
MIC (μg/mL) C. diversus (Citrobacter diversus; [1]): 12.5 µg/mL
MIC (μg/mL) S. marcescens (Serratia marcescens; [1]): 12.5 µg/mL

PRT713 (GTNVCARDNGGCKQLCLYRGNSRRTCACAHGYLAEDGVTCL; listed as Homo sapiens)
MIC K. pneumonia (Klebsiella pneumonia; [4]): 12.5 µg/mL
MIC (E. coli DH5α): 50 µg/mL
MIC M. catarrhalis (Moraxella catarrhalis; [4]): 12.5 µg/mL
MIC E. coli BL21 (E. coli BL21; [4]): 25 µg/mL
MIC P. aeruginosa (Pseudomonas aeruginosa; [4]): 12.5 µg/mL
MIC E. cloacae (Enterobacter cloacae; [4]): 50 µg/mL
MIC P. vulgaris (Proteus vulgaris; [4]): 12.5 µg/mL
MIC P. mirabilis (Proteus mirabilis; [4]): 50 µg/mL
MIC A. hydrophila (Aeromonas hydrophila; [4]): 12.5 µg/mL
MIC C. diversus (Citrobacter diversus; [4]): 50 µg/mL
MIC S. marcescens (Serratia marcescens; [4]): 50 µg/mL
